This passage reports GI50 and TGI results from PubChem BioAssay (NCI).

“And” between values parts separate entries of the source, which are not always exact repeats. Equal entries are not always repeated.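 Dose response: 5 concentrations. Exposure: 48 h. Format: 96-well plates. Endpoint: linear interpolation; highest concentration if not reached. At the GI50, growth is halved. At the TGI there is no net growth.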 A value given as a limit tells only on which side of the number the result lay.

Holding throughout (test): inhibition of tumour cell growth, NCI panel, 48 h
In test [1] the test system is ACHN renal.
The test system of test [2] is BT-549 breast.
The subject of test [3] is HL-60(TB) leukemia.
The test system of test [4] is HOP-92 NSCLC.
In test [5] the test system is K-562 leukemia.
The subject of test [6] is PC-3 prostate.
The subject of test [7] is SF-295 CNS.
Test [8] concerns SF-539 CNS.
Test [9] relates to SNB-19 CNS.
Test [10] relates to TK-10 renal.

As for `CCCCCCCCCCCCNC(=O)[C@H]1CSC(c2ccc(OC)c(F)c2)N1` (some centres not stated), the GI50 is 1.63 µM in test [1]; 0.37 µM in test [2]; 1.63 µM in [3]; 1.69 µM in test [4]; 0.215 µM in [5]; 0.38 µM in [6]. In addition, the GI50 is 1.72 µM in [7], 0.785 µM in test [8], 1.95 µM in test [9] and 1.95 µM in test [10]. Also, the TGI in [1] worked out at 3 µM; in test [2], 0.912 µM; in test [3], 3.59 µM; in [4] it was 3.24 µM; in [5] it was 0.938 µM; in test [6], 1.43 µM. The TGI in [7] is 3.25 µM; in test [8], 2.14 µM; in test [9] it was 3.66 µM; in test [10], 3.48 µM.

Regarding `N#CC1(C#N)C2C=CC(C3CCC=C32)C1(C#N)C#N` (configuration not stated), the TGI is more than 10 µM in test [1]; more than 10 µM in test [2]; 3.81 µM in [3]; more than 10 µM in test [4]; more than 10 µM in [5]; more than 10 µM in [6]. For the same molecule, the TGI was more than 10 µM in test [7], more than 10 µM in test [8], more than 10 µM in test [9] and more than 9.01 µM in [10].

With `Cc1cc(N)c2ccccc2[n+]1CCCCCCCCCC[n+]1c(C)cc(N)c2ccccc21`, the TGI in test [1] is > 50 µM and 7.15 µM and 17.9 µM; in test [2], 1.57 µM and 3.29 µM and 5.32 µM; in test [3], 0.545 µM and 2.14 µM; in [5], 2.22 µM and 3.84 µM and 12.4 µM; in test [6], 4.63 µM and 15.8 µM and 11.1 µM; in [7] it was 1.84 µM and 11.9 µM and 3.61 µM. For the same molecule, the TGI in test [8] is 1.44 µM and 9.96 µM and 3.8 µM; in test [9], > 26.1 µM and 2.96 µM and 16.2 µM; in test [10], 7.63 µM and 15.5 µM and 24.3 µM. Moreover, the GI50 in test [2] is 0.304 µM and 1.5 µM; in [3], 0.142 µM; in test [4], 0.168 µM; in test [5], 0.137 µM; in [6] it was 0.245 µM and 0.744 µM; in test [7] it was 0.189 µM. For the same molecule, the GI50 in test [8] was 0.241 µM and 1.56 µM; in test [10], 0.684 µM and 3.13 µM.

In the case of `CN(C)c1ccc(Sc2ccc3nc(N)nc(N)c3c2)cc1`, the GI50 in test [1] is 0.52 µM; in test [2], 3.28 µM; in test [3], 0.444 µM; in [4], 1.32 µM; in [5], 0.142 µM; in test [6], 0.63 µM. The GI50 in test [7] was 0.537 µM; in test [8] it was 0.985 µM; in [9], 1.2 µM; in test [10], 4.11 µM. In addition, the TGI came to 7.39 µM in test [1]; 19.5 µM in test [2]; 2.2 µM in test [3]; 5.83 µM in test [4]; 4.55 µM in [5]; 15.6 µM in [6]. The TGI in [7] is 14.1 µM; in test [8], 10.3 µM; in [9], 17.7 µM; in test [10], 15.5 µM.

Regarding `COC(=O)Nc1nc2ccc(Sc3ccc(NC(=O)Nc4cc(C(F)(F)F)ccc4F)cc3)cc2[nH]1`, the GI50 in test [1] is 3.58 µM; in test [2], 7.86 µM; in test [3], 1.46 µM; in test [4], 2.53 µM; in test [5], 0.739 µM; in test [6] it was 3.38 µM. Besides, the GI50 is 1.96 µM in test [7], 3.23 µM in test [8], 6.98 µM in test [9] and 5.11 µM in test [10]. In addition, the TGI in test [1] came out at 10.2 µM; in [2], 24.2 µM; in test [3], 12.3 µM; in [4], 10.3 µM; in test [5], 5.89 µM; in test [6], 11.1 µM. Besides, the TGI amounted to 7.52 µM in test [7], 7.98 µM in test [8], 25 µM in test [9] and 11.3 µM in [10].

Regarding `C[C@]12CC[C@@H]3c4ccc(O)cc4CC[C@H]3[C@@H]1CC[C@@H]2NS(=O)(=O)c1ccc(-c2ccccc2)cc1`, the GI50 in test [1] was 2.98 µM; in test [2], 2.99 µM; in test [3] it was 6.26 µM; in [4], 2.09 µM; in test [5], 3.48 µM; in test [6] it was 3.18 µM. The GI50 in [7] was 3.06 µM; in test [8], 3.91 µM; in [9] it was 4.92 µM; in [10] it was 4.42 µM. Moreover, the TGI in [1] was 20.1 µM; in test [2], 11.7 µM; in test [3], 47.6 µM; in [4], 9.68 µM; in test [5] it was more than 100 µM; in test [6] it was 48.9 µM. Further, the TGI in test [7] is 13.2 µM; in test [8], 15.7 µM; in test [9] it was more than 100 µM; in test [10] it was 55.9 µM.

Take `CC(=O)C1=C(O)/C(=C\c2ccco2)OC1=O`: the TGI in test [1], in test [2], in test [3], in [4], in [5] and in test [6] was more than 10 µM throughout. The TGI in test [7], in [8], in test [9] and in test [10] was more than 10 µM in each case.

In the case of `CCNC(=O)Oc1ccc(/C(=C(\C)c2ccc(Cl)cc2)c2ccc(OCCN3CCCCC3)cc2)cc1`, the GI50 in test [1] is 4.78 µM; in test [2] it was 4.27 µM; in [3], 1.99 µM; in test [4], 2.7 µM; in [5] it was 2.34 µM; in [6] it was 3.38 µM. Also, the GI50 in test [7] is 1.95 µM; in test [8] it was 1.81 µM; in [9], 4.77 µM; in test [10] it was 19.5 µM. Also, the TGI in test [1] was 16.7 µM; in test [2], 16.6 µM; in [3], 4.47 µM; in [4] it was 9.25 µM; in test [5] it was 5.96 µM; in test [6], 11.3 µM. Besides, the TGI amounted to 4.36 µM in [7], 3.59 µM in [8], 16.2 µM in test [9] and 34.6 µM in [10].

Consider `COc1cc2c(cc1OC)[C@H]1C(=O)c3cc4c(cc3[C@H]1N(C)C2=O)OCO4`, for which the TGI in [1] was more than 100 µM; in test [2] it was more than 100 µM; in [3], more than 68.6 µM; in [4] it was more than 89.8 µM; in test [5], more than 100 µM; in [6] it was more than 100 µM. Further, the TGI is more than 69.9 µM in [7], more than 77.8 µM in [8], more than 100 µM in [9] and more than 100 µM in [10].
